Results reported in patent US8524740B2, “Synthesis and anticancer activity of aryl and heteroaryl-quinolin derivatives” (Tairx, Inc., priority 2010, dated 2013).
pIC50: −log10 of the molar value.

Experiments:
HL-60 = assay: MTT assay, HL-60 cells; format: cell-based; settings: Homo sapiens
Protocol: (§1) MTT (3-(4,5-Dimethylthiazol-2-yl)-2,5-diphenyltetrazolium bromide) assays.^21,22 HL-60, HCT-116, Hep 3B, H460, Detroit 551 and HT29/FuR cells were treated with tested compounds for the indicated periods. After treatment, cells were washed once with PBS and incubated with MTT (Sigma, St. Louis, Mo., USA) for 2 h. The formazan precipitate was dissolved in 150 μL of DMSO, and the absorbance was measured with an ELISA reader at 570 nm.
(§2) HL-60, Hep 3B, H460, MES-SA, MES-SAID x5 and Detroit 551 cells were treated with vehicle or test compounds for 48 h. The cell growth rate was determined by MTT (3-(4,5-dimethyl-thiazol-2-yl)-2,5-diphenyltetrazoliun bromide) reduction assay.
(§3) MTT (3-(4,5-Dimethylthiazol-2-yl)-2,5-diphenyltetrazolium bromide) assays. HL-60, HCT-116, A549, Hep 3B, KB, Kb-VIN and DU145 cells were treated with tested compounds for the indicated periods. After treatment, cells were washed once with PBS and incubated with MTT (Sigma, St. Louis, Mo., USA) for 2 h. The formazan precipitate was dissolved in 150 μL of DMSO, and the absorbance was measured with an ELISA reader at 570 nm.
(§4) MTT (3-(4,5-Dimethylthiazol-2-yl)-2,5-diphenyltetrazolium bromide) assays. HL-60, Hep 3B, H460, A498, Colo205 and Detroit 551 cells were treated with tested compounds for the indicated periods. After treatment, cells were washed once with PBS and incubated with MTT (Sigma, St. Louis, Mo., USA) for 2 h. The formazan precipitate was dissolved in 150 μL of DMSO, and the absorbance was measured with an ELISA reader at 570 nm.

[1] = system: HL-60, HCT-116, Hep3B, H-460; assay: Cytotoxicity screen (MTT) against human cancer cell lines, results in words; format: cell-based; settings: comparison within sub-series or with CHM-2133
Protocol: as §1, §2

HT29/5FuR = assay: MTT assay, HT29/5FuR cells; format: cell-based; settings: Homo sapiens, HT-29, Table 1, 48 h
Protocol: as §1

Detroit 551 = assay: MTT assay, Detroit 551 normal human cells; format: cell-based; settings: for pIC50: Detroit 551; for toxicity toward Detroit 551 normal human cell (in words): Table 1 compounds
Protocol: as §1, §2, §4

Hep3B = assay: MTT assay, Hep 3B cells; format: cell-based; settings: Homo sapiens
Protocol: as §1, §2, §3, §4

H460 = assay: MTT assay, H460 cells; format: cell-based; settings: Homo sapiens, NCI-H460
Protocol: as §1, §2, §4

HCT116 = assay: MTT assay, HCT-116 cells; format: cell-based; settings: Homo sapiens, Table 1, 48 h
Protocol: as §1, §3

MES-SA/Dx5 = assay: MTT assay, MES-SA/Dx5 cells; format: cell-based, human; settings: for pIC50: Homo sapiens, MES-SA/Dx5, 48 hrs; for Ratio Of SA/Dx5: IC50 MES-SA/Dx5 over IC50 MES-SA
Protocol: as §2

MES-SA = assay: MTT assay, MES-SA cells; format: cell-based; settings: Homo sapiens, 48 hrs
Protocol: as §2

[2] = Table 1, 48 h, MTT, normal human cell
[3] = Homo sapiens, Table 2, B-1 series, 48 hrs

Row | Structure (SMILES) | melting point [°C] | pIC50 (HL-60; Table 1, 48 h, MTT) | cytotoxicity (in words) [1] | pIC50 (HT29/5FuR) | pIC50 (Detroit 551; [2]) | pIC50 (Hep3B; Table 1, 48 h, MTT) | pIC50 (H460; Table 1, 48 h, MTT) | pIC50 (HCT116) | also measured
1 | COc1cc2c(cc1O)N=C(c1ccccc1F)CC2=O [Compound 43, 2-(2-Fluorophenyl)-7-hydroxy-6-methoxyquinolin-4-one] | 277 to 279 | 5.89 | greater cytotoxicity | 6.54 | 4.53 | 5.28 | 5.36 | 5.24 | 
2 | COc1ccccc1C1=Nc2ccc(N3CCOCC3)cc2C(=O)C1 [Compound 130, 2-(2-Methoxyphenyl)-6-morpholinoquinolin-4-one] | 262 to 264 |  |  |  |  |  |  |  | pIC50 (MES-SA/Dx5; Table 2, B-1 series): 5.01; Ratio Of SA/Dx5 (MES-SA/Dx5; Table 2, B-1 series): 3.88; pIC50 (HL-60; Table 2, B-1 series, 48 hrs): 5.61; pIC50 (Detroit 551; [3]): < 4.70; pIC50 (H460; Table 2, B-1 series, 48 hrs): 5.13; pIC50 (MES-SA; Table 2, B-1 series): 5.60
3 | O=C1CC(c2ccccc2O)=Nc2ccc(N3CCOCC3)cc21 [Compound 134, 2-(2-Hydroxyphenyl)-6-morpholinoquinolin-4-one] |  |  |  |  |  |  |  |  | pIC50 (MES-SA/Dx5; Table 2, B-1 series): 4.98; Ratio Of SA/Dx5 (MES-SA/Dx5; Table 2, B-1 series): 4.38; pIC50 (HL-60; Table 2, B-1 series, 48 hrs): 5.68; pIC50 (Detroit 551; [3]): < 4.00; pIC50 (Hep3B; Table 2, B-1 series, 48 hrs): 5.06; pIC50 (H460; Table 2, B-1 series, 48 hrs): 5.08; pIC50 (MES-SA; Table 2, B-1 series): 5.62
4 | COc1ccc(OC)c(C2=Nc3ccc(N4CCOCC4)cc3C(=O)C2)c1 [Compound 128, 2-(2,5-Dimethoxyphenyl)-6-morpholinoquinolin-4-one] |  |  |  |  |  |  |  |  | pIC50 (MES-SA/Dx5; Table 2, B-1 series): 5.09; Ratio Of SA/Dx5 (MES-SA/Dx5; Table 2, B-1 series): 4.04; pIC50 (HL-60; Table 2, B-1 series, 48 hrs): 5.92; pIC50 (Detroit 551; [3]): 4.78; pIC50 (Hep3B; Table 2, B-1 series, 48 hrs): 5.51; pIC50 (H460; Table 2, B-1 series, 48 hrs): 5.46; pIC50 (MES-SA; Table 2, B-1 series): 5.69
5 | COc1cc2c(cc1O)N=C(c1ccc(F)cc1)CC2=O [Compound 45, 2-(4-Fluorophenyl)-7-hydroxy-6-methoxyquinolin-4-one] | 352 to 354 | 4.42 | weaker | 6.43 | < 4.00 | < 4.00 | < 4.00 | < 4.00 | 
6 | O=C1CC(c2cccc(O)c2)=Nc2ccc(N3CCOCC3)cc21 [Compound 137, 2-(3-Hydroxyphenyl)-6-morpholinoquinolin-4-one] | 357 to 360 |  |  |  |  |  |  |  | pIC50 (MES-SA/Dx5; Table 2, B-1 series): 5.14; Ratio Of SA/Dx5 (MES-SA/Dx5; Table 2, B-1 series): 2.02; pIC50 (HL-60; Table 2, B-1 series, 48 hrs): 6.64; pIC50 (Detroit 551; [3]): 5.00; pIC50 (Hep3B; Table 2, B-1 series, 48 hrs): 4.94; pIC50 (H460; Table 2, B-1 series, 48 hrs): 4.61; pIC50 (MES-SA; Table 2, B-1 series): 5.44
7 | COc1cc2c(cc1O)N=C(c1cccc(F)c1)CC2=O [Compound 44, 2-(3-Fluorophenyl)-7-hydroxy-6-methoxyquinolin-4-one] | 326 to 328 | 6.05 | greater cytotoxicity | 6.52 | 5.00 | 5.28 | 5.32 | 5.96 | 
8 | O=C1CC(c2ccccc2F)=Nc2ccc(O)c(O)c21 [Compound 40, 2-(2-Fluorophenyl)-5,6-dihydroxyquinolin-4-one] |  | 6.30 | greater cytotoxicity | 5.79 | < 4.00 | 5.41 | 5.39 | 6.22 | 
9 | O=C1CC(c2cccc(F)c2)=Nc2ccc3c(c21)OCO3 [Compound 20, 2-(3-Fluorophenyl)-5,6-methylenedioxyquinolin-4-one] | 286 to 288 | 6.15 | significant cytotoxicity | 6.09 | < 5.30 | 5.62 | 5.49 | 5.60 | 
10 | COc1ccc2c(c1O)C(=O)CC(c1ccccc1F)=N2 [Compound 37, 2-(2-Fluorophenyl)-5-hydroxy-6-methoxyquinolin-4-one] |  | 7.17 | greater cytotoxicity | 6.70 | 5.00 | 7.30 | 6.96 | 7.30 | toxicity toward Detroit 551 normal human cell (in words) (Detroit 551): lower toxicity
11 | COc1ccc2c(c1OC)C(=O)CC(c1cccc(F)c1)=N2 [Compound 17, 2-(3-Fluorophenyl)-5,6-dimethoxyquinolin-4-one] | 190 to 192 | 5.89 | strongest cytotoxicity | 5.71 | 4.00 | 5.59 | 5.46 | 5.92 | 
12 | COc1ccc2c(c1OC)C(=O)CC(c1ccc(F)cc1)=N2 [Compound 18, 2-(4-Fluorophenyl)-5,6-dimethoxyquinolin-4-one] | 227 to 229 | 5.70 | weaker | 5.69 | < 4.70 | < 4.70 | < 4.70 | < 4.70 | 
13 | O=C1CC(c2cc(O)ccc2O)=Nc2ccc(N3CCOCC3)cc21 [Compound 144a, 2-(2,5-dihydroxyphenyl)-6-morpholinoquinolin-4-one] |  |  |  |  |  |  |  |  | pIC50 (MES-SA/Dx5; Table 3, B-2 series): 4.60; Ratio Of SA/Dx5 (MES-SA/Dx5; Table 3, B-2 series): 6.78; pIC50 (HL-60; Table 3, B-2 series, 48 hrs): 5.79; pIC50 (Detroit 551; Homo sapiens, Table 3, B-2 series, 48 hrs): 5.04; pIC50 (Hep3B; Table 3, B-2 series, 48 hrs): 5.13; pIC50 (H460; Table 3, B-2 series, 48 hrs): 5.19; pIC50 (MES-SA; Table 3, B-2 series): 5.43
14 | O=C1CC(c2ccccc2F)=Nc2ccc3c(c21)OCO3 [Compound 19, 2-(2-Fluorophenyl)-5,6-methylenedioxyquinolin-4-one] | 282 to 283 | 6.00 | significant cytotoxicity | 6.16 | < 5.00 | 5.72 | 5.35 | 5.68 | 
15 | COc1ccc2c(c1O)C(=O)CC(c1cccc(F)c1)=N2 [Compound 38, 2-(3-Fluorophenyl)-5-hydroxy-6-methoxyquinolin-4-one] |  | 7.41 | greater cytotoxicity | 6.59 | < 4.30 | 7.11 | 7.06 | 7.14 | toxicity toward Detroit 551 normal human cell (in words) (Detroit 551): lower toxicity
16 | O=C1CC(c2ccc(F)cc2)=Nc2ccc3c(c21)OCO3 [Compound 21, 2-(4-Fluorophenyl)-5,6-methylenedioxyquinolin-4-one] | 286 to 288 | < 5.00 | weaker | 6.28 | < 5.00 | < 5.00 | < 5.00 | < 5.00 | 
